Reference: patent US9290478B2, “Substituted quinoxalines as FGFR kinase inhibitors” (ASTEX THERAPEUTICS LTD, priority 2010, dated 2016)

How the values were obtained:
[1] = test system: Ba/F3-FGFR3-transfected cells; assay: Ba/F3-FGFR3 (minus IL3 or plus IL3) cellular proliferation assay; type: cell-based; settings: plus 10 ng/ml murine IL3 (counterscreen); for IC50: 24 h, read-out: BAF3-FGFR3 (PLUS IL3) pIC50 (converted)
Protocol: (§1) Ba/F3-FGFR3 (Minus IL3 or Plus IL3) (Cellular Proliferation Assay)
(§2) In a 384 well plate, 100 nI of compound dilution in DMSO was sprayed before adding 50 μl cell culture medium (phenol red free RPMI-1640, 10% FBS, 2 mM L-Glutamine and 50 μg/ml Gentamycin) containing 20000 cells per well of Ba/F3-FGFR3-transfected cells. Cells were put in an incubator at 37° C. and 5% CO2. After 24 hours, 10 μl of Alamar Blue solution (0.5 mM K3Fe(CN)6, 0.5 mM K4Fe(CN)6, 0.15 mM Resazurin and 100 mM Phosphate Buffer) was added to the wells, incubated for 4 hours at 37° C. and 5% CO2 before RFU's (Relative Fluorescence Units) (ex. 540 nm., em. 590 nm.) were measured in a fluororescence plate reader.
(§3) In this assay, the inhibitory effect of different compound concentrations (range 10 μM to 0.1 nM) was determined and used to calculate an IC50 (M) and pIC50 (−log IC50) value. As a counterscreen the same experiment was performed in the presence of 10 ng/ml murine IL3.

[2] = molecular target: T1, Ba/F3-FGFR3-transfected cells (Homo sapiens, UniProt P22607); assay: as above; type: cell-based; settings: minus IL3
T1 construct: BAF3-FGFR3 (MIN IL3) pIC50; other: minus IL3
Protocol: as §1, §2, §3

VEGFR2 = molecular target: T2, VEGFR2 (Homo sapiens, UniProt P35968); assay: Biological Assays B: VEGFR2 in vitro kinase inhibitory activity assay; type: biochemical; settings: 0.5 μM ATP, read-out: VEGFR2 pIC50 (converted)
T2 construct: purchased Upstate
Protocol: (§4) Biological Assays B FGFR3, VEGFR2 and PDGFR In Vitro Kinase Inhibitory Activity Assays
(§5) Enzymes (from Upstate), prepared at 2× final concentration, were incubated with test compounds, biotinylated Fit3 substrate (biotin-VASSDNEYFYVDF) (Cell Signalling Technology Inc.) and ATP in the appropriate assay buffer (Table 1). The reaction was allowed to proceed for 3 hours (FGFR3), 1 hour (VEGFR2, PDGFR-beta) at room temperature on a plate shaker at 700 rpm before being stopped with 35 mM EDTA, pH 8 (FGFR3, VEGFR2) or 55 mM EDTA, pH 8 (PDGFR-beta). 5× detection mix (50 mM HEPES pH 7.5, 0.1% BSA, 11.34 nM Eu-anti-pY (PY20) (PerkinElmer) 74 nM SA-XL665 (Cisbio) for FGFR3, 50 mM HEPES, pH 7.5, 0.1% BSA, 11.34 nM Eu-anti-pY (PY20), 187.5 nM SA-XL665 for VEGFR2 and 50 mM HEPES, pH 7.5, 0.1% BSA, 11.34 nM Eu-anti-pY (PT66) (PerkinElmer), 375 nM SA-XL665 (Cisbio) for PDGFR-beta) was then added to each well and the plate sealed and incubated at room temperature for one hour on a plate shaker at 700 rpm. The plate was then read on a Packard Fusion plate reader or a BMG Pherastar both in TRF mode.

Ba/F3-TEL-FGFR3 cells = molecular target: T3, Ba/F3-TEL-FGFR3 cells (Homo sapiens, UniProt P22607); assay: Ba/F3-TEL-FGFR3 cell proliferation assay; type: cell-based; settings: 72 hours
T3 construct: fused on or other part: P41212 (Transcription factor ETV6)
Protocol: (§6) Ba/F3-TEL-FGFR3 & Ba/F3 (WT) Cell Proliferation Assays
(§7) Stably transfected Ba/F3-TEL-FGFR3 cells were plated out into black 96-well tissue culture plates with clear bottoms in RPMI medium containing 10% FBS and 0.25 mg/ml G418 at a density of 5×10^3 cells/well (200 μl per well). The parental wild-type Ba/F3 cells (DSMZ no.: ACC 300) were plated out into black 96-well tissue culture plates with clear bottoms in RPMI medium containing 10% FBS and 2 ng/ml mouse IL-3 (R&D Sysems) at a density of 2.5×10^3 cells/well (200 μl per well). Plates were placed in an incubator overnight before adding the compounds the following day. Dilutions of compounds were made in DMSO starting at 10 mM and were diluted into the wells to give a final DMSO concentration of 0.1% in assay. Compounds were left on the cells for 72 hours before the plates were removed from the incubator and 20 μl of Alamar Blue™ (Biosource) was added to each well. Plates were placed in the incubator for 4-6 hours before reading plates at 535 nm (excitation)/590 nm (emission) on a Fusion plate reader (Packard). Where inhibition is high an IC50 can be determined.

[3] = test system: parental wild-type Ba/F3 cells; assay: Ba/F3 (WT) cell proliferation assay; type: cell-based; settings: BaF3; 72 hours, 2 ng/ml mouse IL-3; read-out: BAF3_WT pIC50 (converted)
Protocol: as §6, §7

FGFR3 = molecular target: T4, FGFR3 (Homo sapiens, UniProt P22607); assay: Biological Assays B: FGFR3 in vitro kinase inhibitory activity assay; type: biochemical; settings: 8 μM ATP, read-out: FGFR3 pIC50 (converted)
T4 construct: purchased Upstate
Protocol: as §4, §5

T2 sequence (P35968 20-1356): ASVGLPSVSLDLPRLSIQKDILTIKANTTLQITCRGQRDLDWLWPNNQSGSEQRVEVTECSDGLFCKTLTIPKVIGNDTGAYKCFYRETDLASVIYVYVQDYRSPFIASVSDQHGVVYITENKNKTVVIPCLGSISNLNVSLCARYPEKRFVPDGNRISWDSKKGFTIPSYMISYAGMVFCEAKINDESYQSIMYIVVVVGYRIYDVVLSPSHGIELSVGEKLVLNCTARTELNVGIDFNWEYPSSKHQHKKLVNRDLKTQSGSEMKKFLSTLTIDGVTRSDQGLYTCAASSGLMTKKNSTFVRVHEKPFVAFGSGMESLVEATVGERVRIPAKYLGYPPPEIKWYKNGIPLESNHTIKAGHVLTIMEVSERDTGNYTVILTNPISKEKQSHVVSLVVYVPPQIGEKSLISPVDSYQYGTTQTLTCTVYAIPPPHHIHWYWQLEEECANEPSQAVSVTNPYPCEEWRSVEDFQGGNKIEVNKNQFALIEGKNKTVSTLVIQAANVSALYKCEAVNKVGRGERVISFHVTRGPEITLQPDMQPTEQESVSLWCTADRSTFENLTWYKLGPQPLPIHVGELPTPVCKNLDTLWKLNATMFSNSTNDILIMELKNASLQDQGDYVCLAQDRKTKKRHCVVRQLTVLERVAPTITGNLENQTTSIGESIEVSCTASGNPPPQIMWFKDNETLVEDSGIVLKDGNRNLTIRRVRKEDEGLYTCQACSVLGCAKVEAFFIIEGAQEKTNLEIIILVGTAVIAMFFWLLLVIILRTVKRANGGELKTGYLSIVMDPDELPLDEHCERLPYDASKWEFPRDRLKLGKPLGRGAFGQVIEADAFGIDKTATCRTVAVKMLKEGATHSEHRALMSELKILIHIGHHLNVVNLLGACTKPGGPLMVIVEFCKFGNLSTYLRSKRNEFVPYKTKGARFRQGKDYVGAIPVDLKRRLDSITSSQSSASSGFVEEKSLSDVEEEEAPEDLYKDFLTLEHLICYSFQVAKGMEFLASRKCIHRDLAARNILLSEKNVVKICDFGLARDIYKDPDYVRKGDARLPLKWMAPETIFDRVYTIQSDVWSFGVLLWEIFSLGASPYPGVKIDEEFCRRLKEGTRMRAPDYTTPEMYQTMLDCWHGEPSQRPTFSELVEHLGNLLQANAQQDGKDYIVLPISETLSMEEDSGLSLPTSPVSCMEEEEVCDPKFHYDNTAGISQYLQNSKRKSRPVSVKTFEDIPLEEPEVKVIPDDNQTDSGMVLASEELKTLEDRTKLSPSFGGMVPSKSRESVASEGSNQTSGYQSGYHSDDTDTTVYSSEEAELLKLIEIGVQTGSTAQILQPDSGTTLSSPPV
T1 sequence (P22607 whole entry, change not shown): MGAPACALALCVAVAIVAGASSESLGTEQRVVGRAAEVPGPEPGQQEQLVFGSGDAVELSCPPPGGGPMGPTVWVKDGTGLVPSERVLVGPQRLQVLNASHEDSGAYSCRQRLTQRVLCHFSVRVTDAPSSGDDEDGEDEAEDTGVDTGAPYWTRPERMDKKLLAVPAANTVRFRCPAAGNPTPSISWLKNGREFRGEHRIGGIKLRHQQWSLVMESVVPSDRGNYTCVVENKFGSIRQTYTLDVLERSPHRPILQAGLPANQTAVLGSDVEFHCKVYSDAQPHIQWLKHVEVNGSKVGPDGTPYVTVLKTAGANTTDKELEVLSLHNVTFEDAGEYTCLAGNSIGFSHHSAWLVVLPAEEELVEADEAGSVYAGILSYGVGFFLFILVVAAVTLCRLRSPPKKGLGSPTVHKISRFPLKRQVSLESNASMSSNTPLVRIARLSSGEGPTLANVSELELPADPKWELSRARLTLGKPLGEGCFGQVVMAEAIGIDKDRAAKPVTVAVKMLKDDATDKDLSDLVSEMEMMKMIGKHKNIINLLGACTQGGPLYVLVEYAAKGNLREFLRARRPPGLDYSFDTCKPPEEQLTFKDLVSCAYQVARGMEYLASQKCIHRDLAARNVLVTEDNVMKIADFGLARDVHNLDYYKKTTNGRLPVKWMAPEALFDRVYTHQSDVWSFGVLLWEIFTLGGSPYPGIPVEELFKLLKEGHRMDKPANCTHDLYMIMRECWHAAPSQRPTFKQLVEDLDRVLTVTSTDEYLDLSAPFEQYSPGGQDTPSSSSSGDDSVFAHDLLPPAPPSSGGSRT
T4 sequence (P22607 23-806): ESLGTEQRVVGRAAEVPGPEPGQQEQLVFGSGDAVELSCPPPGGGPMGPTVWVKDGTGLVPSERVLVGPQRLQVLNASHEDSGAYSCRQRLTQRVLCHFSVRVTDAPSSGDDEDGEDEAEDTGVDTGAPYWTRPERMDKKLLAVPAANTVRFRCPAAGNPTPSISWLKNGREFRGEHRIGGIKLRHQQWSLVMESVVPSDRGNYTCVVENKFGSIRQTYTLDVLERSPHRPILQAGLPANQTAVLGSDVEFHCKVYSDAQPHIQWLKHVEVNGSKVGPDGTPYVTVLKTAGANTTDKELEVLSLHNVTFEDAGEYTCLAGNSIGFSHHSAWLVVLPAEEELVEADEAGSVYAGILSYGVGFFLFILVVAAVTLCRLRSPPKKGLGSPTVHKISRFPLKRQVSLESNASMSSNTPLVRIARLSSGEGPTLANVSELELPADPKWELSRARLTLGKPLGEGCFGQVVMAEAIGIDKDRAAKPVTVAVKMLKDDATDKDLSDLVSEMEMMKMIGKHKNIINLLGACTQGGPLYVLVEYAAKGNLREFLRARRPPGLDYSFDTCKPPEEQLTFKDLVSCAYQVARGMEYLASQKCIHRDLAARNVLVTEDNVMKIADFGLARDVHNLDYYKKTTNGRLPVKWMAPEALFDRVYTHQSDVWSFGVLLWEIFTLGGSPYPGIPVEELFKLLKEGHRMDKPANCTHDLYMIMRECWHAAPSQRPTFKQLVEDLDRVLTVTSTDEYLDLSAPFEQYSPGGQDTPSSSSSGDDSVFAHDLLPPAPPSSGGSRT
T3 sequence (P22607 whole entry, change not shown, the tested form may be a part): as the sequence (P22607 whole entry, change not shown) above

| Compound | BAF3-FGFR3 (MIN IL3) pIC50 [2] | melting point [°C] | IC50 (VEGFR2) [µM] | BAF3_TEL_FGFR3 pIC50 (Ba/F3-TEL-FGFR3 cells) | IC50 (FGFR3) [µM] | IC50 [1] [µM] | BAF3-FGFR3 (PLUS IL3) pIC50 [1] | IC50 [3] [µM] |
| --- | --- | --- | --- | --- | --- | --- | --- | --- |
| COc1cc(OC)cc(/C(=C/CNC(C)C)c2ccc3ncc(-c4cnn(C)c4)nc3c2)c1 [Compound 9] | 6.82 |  |  |  |  | > 10 |  |  |
| COc1cc(OC)cc(C(NCCNC(C)C)c2ccc3ncc(-c4cnn(C)c4)nc3c2)c1.Cl (single isomer, unassigned) [Compound 24] | 5.29 |  |  |  |  | > 10 |  |  |
| COc1cc(OC)cc(C(O)(CNCCNC(C)C)c2ccc3ncc(-c4cnn(C)c4)nc3c2)c1 (single isomer, unassigned) [Compound 5] | <5 |  |  |  |  | > 10 |  |  |
| COc1cc(OC)cc(C(O)(CNCCNC(C)C)c2ccc3ncc(-c4cnn(C)c4)nc3c2)c1 (single isomer, unassigned) [Compound 6] | <5 |  |  |  |  |  |  |  |
| CN(C)CCC(c1ccccc1)c1ccc2ncc(-c3cnn(C)c3)nc2c1 (stereo not shown) [Compound 35] | <5 |  |  |  |  | > 10 |  |  |
| COc1cc(OC)cc(/C(=C/CN(C)C)c2ccc3ncc(-c4cnn(C)c4)nc3c2)c1 [Compound 34] | ~5.13 | 177 |  |  |  | > 10 |  |  |
| COc1cc(OC)cc(C(=O)c2ccc3ncc(-c4cnn(C)c4)nc3c2)c1 [Compound 2] | 5.17 | 162 |  |  |  | > 10 |  |  |
| COc1cc(OC)cc(C2(c3ccc4ncc(-c5cnn(C)c5)nc4c3)CC2)c1 [Compound 30] | 5.63 | 140 | 0.282 |  | 0.02 | > 10 |  |  |
| CNCC(O)(c1cc(OC)cc(OC)c1)c1ccc2ncc(-c3cnn(C)c3)nc2c1.Cl (single isomer, unassigned) [Compound 37] | <5 | 174 |  |  |  | > 10 |  |  |
| COc1cc(OC)cc(/C(=C\CN(C)C)c2ccc3ncc(-c4cnn(C)c4)nc3c2)c1 [Compound 10, {(Z)-3-(3,5-Dimethoxy-phenyl)-3-[3-(1-methyl-1H-pyrazol-4-yl)-quinoxalin-6-yl]-allyl}-dimethyl-amine] | 6.27 | 164 |  |  |  | > 10 |  |  |
| COc1cc(OC)cc(/C(=C\CNCC(F)(F)F)c2ccc3ncc(-c4cnn(C)c4)nc3c2)c1 [Compound 14, {(Z)-3-(3,5-Dimethoxy-phenyl)-3-[3-(1-methyl-1H-pyrazol-4-yl)-quinoxalin-6-yl]-allyl}-(2,2,2-trifluoro-ethyl)-amine] | 6.39 |  |  |  |  | > 10 |  |  |
| Cn1cc(-c2cnc3ccc(C(O)c4ccccc4)cc3n2)cn1 (stereo not shown) [Compound 28] | <5 |  |  |  |  | > 10 |  |  |
| CNCC(O)(c1cc(OC)cc(OC)c1)c1ccc2ncc(-c3cnn(C)c3)nc2c1.Cl (single isomer, unassigned) [Compound 38] | <5 | 169 |  |  |  |  | <5 |  |
| COc1cc(OC)cc(/C(=C\CNC(C)C)c2ccc3ncc(-c4cnn(C)c4)nc3c2)c1 [Compound 8, {(Z)-3-(3,5-Dimethoxy-phenyl)-3-[3-(1-methyl-1H-pyrazol-4-yl)-quinoxalin-6-yl]-allyl}-isopropyl-amine] | 6.72 | 164 |  |  |  | > 10 |  |  |
| COc1cc(OC)cc(/C(=C\C#N)c2ccc3ncc(-c4cnn(C)c4)nc3c2)c1 [Compound 4] | 5.76 | 204 |  |  |  | > 10 |  |  |
| COc1cc(OC)cc(/C(=C/C#N)c2ccc3ncc(-c4cnn(C)c4)nc3c2)c1 [Compound 3] | 5.29 | 223 |  |  |  | > 10 |  |  |

The next lines start with results.

| BAF3-FGFR3 (MIN IL3) pIC50 [2] | melting point [°C] | IC50 (VEGFR2) [µM] | BAF3_TEL_FGFR3 pIC50 (Ba/F3-TEL-FGFR3 cells) | IC50 (FGFR3) [µM] | Compound | IC50 [1] [µM] | BAF3-FGFR3 (PLUS IL3) pIC50 [1] | IC50 [3] [µM] |
| --- | --- | --- | --- | --- | --- | --- | --- | --- |
| ~5.03 |  |  |  |  | COc1cc(OC)cc(C(CCNC(C)C)c2ccc3ncc(-c4cnn(C)c4)nc3c2)c1 (single isomer, unassigned) [Compound 32a] |  | <5 |  |
| 5.27 | 140 |  |  |  | COc1cc(OC)cc(C(CCCN)c2ccc3ncc(-c4cnn(C)c4)nc3c2)c1.Cl (stereo not shown) [Compound 40] | > 10 |  |  |
| 5.48 |  | 6.31 |  |  | COc1cc(OC)cc(C(CC#N)c2ccc3ncc(-c4cnn(C)c4)nc3c2)c1 (stereo not shown) [Compound 18] | > 10 |  |  |
| 6.32 |  |  |  |  | COc1cc(OC)cc(C(CCN(C)C)c2ccc3ncc(-c4cnn(C)c4)nc3c2)c1.Cl (stereo not shown) [Compound 21] | > 10 |  |  |
| 5.8 |  |  |  |  | COc1cc(OC)cc(C(CCN2CCCC2=O)c2ccc3ncc(-c4cnn(C)c4)nc3c2)c1.Cl (stereo not shown) [Compound 7] | > 10 |  |  |
| 5.65 | 114 | 3.98 | 6.85 |  | COc1cc(OC)cc(C(CCO)c2ccc3ncc(-c4cnn(C)c4)nc3c2)c1 (stereo not shown) [Compound 22] | > 10 |  |  |
| ~5.11 | 162 |  |  |  | COc1cc(OC)cc(C(CCNCC(F)(F)F)c2ccc3ncc(-c4cnn(C)c4)nc3c2)c1.Cl (stereo not shown) [Compound 33] | > 10 |  |  |
| 6.04 | 211 | 3.16 |  |  | COc1cc(OC)cc(C(CCN)c2ccc3ncc(-c4cnn(C)c4)nc3c2)c1.Cl (stereo not shown) [Compound 20] | > 10 |  |  |
| 6.44 | 148 | 1 | 7.7 | 0.02 | COc1cc(OC)cc(C(CCNC(C)C)c2ccc3ncc(-c4cnn(C)c4)nc3c2)c1.Cl (stereo not shown) [Compound 29, {3-(3,5-Dimethoxy-phenyl)-3-[3-(1-methyl-1H-pyrazol-4-yl)-quinoxalin-6-yl]-propyl}-isopropyl-amine] | > 10 |  | 5.01 |
| 6.67 |  |  |  |  | COc1cc(OC)cc(C(CCNC(C)C)c2ccc3ncc(-c4cnn(C)c4)nc3c2)c1 (single isomer, unassigned) [Compound 19a] | > 10 |  |  |
| 5.13 |  |  |  |  | COc1cc(OC)cc(C(CC(C)(O)CNC(C)C)c2ccc3ncc(-c4cnn(C)c4)nc3c2)c1.Cl (stereo not shown) [Compound 25] | > 10 |  |  |
| <5 | 186 |  |  |  | COc1cc(OC)cc(C(CC(=O)NC(C)C)c2ccc3ncc(-c4cnn(C)c4)nc3c2)c1 (stereo not shown) [Compound 23] | > 10 |  |  |
| <5 |  |  |  |  | COc1cc(OC)cc(C(NCCNC(C)C)c2ccc3ncc(-c4cnn(C)c4)nc3c2)c1.Cl (single isomer, unassigned) [Compound 39] |  | <5 |  |
